ChEMBL document CHEMBL1201862, “PubChem BioAssay data set” (2004)
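These data come from cells grown in 96-well plates and exposed to compound for 48 hours at five concentrations. GI50 = concentration required for 50% inhibition of growth.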 The source made the active and inactive calls. No stated cut-off is given here; in the data, active = GI50 up to about 1.1 µM and inactive = higher.

Key:
Assay in all cases: growth of human tumour cells (NCI), 48 h
A549 = system: A549
ACHN = system: ACHN
CAKI-1 = system: CAKI-1
COLO 205 = system: COLO 205
DLD-1 = system: DLD-1
DMS-273 = system: DMS-273
EKVX = system: EKVX
HCC 2998 = system: HCC 2998
HCT-116 = system: HCT-116
HCT-15 = system: HCT-15
HL-60 = system: HL-60
HOP-62 = system: HOP-62
HOP-92 = system: HOP-92
HT-29 = system: HT-29
IGROV-1 = system: IGROV-1
KM-20L2 = system: KM-20L2
KM12 = system: KM12
LOX IMVI = system: LOX IMVI
M14 = system: M14
M19-MEL = system: M19-MEL
MOLT-4 = system: MOLT-4
Malme-3M = system: Malme-3M
NCI-H226 = system: NCI-H226
NCI-H23 = system: NCI-H23
NCI-H460 = system: NCI-H460
NCI-H522 = system: NCI-H522
OVCAR-3 = system: OVCAR-3
OVCAR-4 = system: OVCAR-4
OVCAR-5 = system: OVCAR-5
OVCAR-8 = system: OVCAR-8
RXF 393 = system: RXF 393
SF-268 = system: SF-268
SF-295 = system: SF-295
SF-539 = system: SF-539
SK-MEL-28 = system: SK-MEL-28
SK-MEL-2 = system: SK-MEL-2
SK-MEL-5 = system: SK-MEL-5
SK-OV-3 = system: SK-OV-3
SNB-19 = system: SNB-19
SNB-75 = system: SNB-75
SNB-78 = system: SNB-78
SR = system: SR
SW-620 = system: SW-620
TK-10 = system: TK-10
U-251 = system: U-251
UACC-257 = system: UACC-257
UACC-62 = system: UACC-62
UO-31 = system: UO-31
XF498 = system: XF498

CCCCOC(=O)CN1C(=O)c2ccccc2C1=O
GI50 (A549): > 100 µM (inactive)
GI50 (ACHN): > 100 µM (inactive)
GI50 (CAKI-1): 84.5 µM (inactive)
GI50 (COLO 205): > 100 µM (inactive)
GI50 (DLD-1): > 100 µM (inactive)
GI50 (DMS-273): > 100 µM (inactive)
GI50 (EKVX): > 100 µM (inactive)
GI50 (HCC 2998): > 100 µM (inactive)
GI50 (HCT-116): > 100 µM (inactive)
GI50 (HCT-15): > 100 µM
GI50 (HL-60): > 100 µM (inactive)
GI50 (HOP-62): > 100 µM (inactive)
GI50 (HOP-92): > 100 µM (inactive)
GI50 (HT-29): > 100 µM (inactive)
GI50 (IGROV-1): > 100 µM (inactive)
GI50 (KM-20L2): > 100 µM (inactive)
GI50 (KM12): > 100 µM (inactive)
GI50 (LOX IMVI): > 100 µM (inactive)
GI50 (M14): > 100 µM (inactive)
GI50 (M19-MEL): > 100 µM (inactive)
GI50 (MOLT-4): > 100 µM (inactive)
GI50 (Malme-3M): > 100 µM (inactive)
GI50 (NCI-H226): > 100 µM (inactive)
GI50 (NCI-H23): > 100 µM (inactive)
GI50 (NCI-H460): > 100 µM (inactive)
GI50 (NCI-H522): > 100 µM (inactive)
GI50 (OVCAR-3): > 100 µM (inactive)
GI50 (OVCAR-4): > 100 µM (inactive)
GI50 (OVCAR-5): > 100 µM (inactive)
GI50 (OVCAR-8): > 100 µM (inactive)
GI50 (RXF 393): > 100 µM (inactive)
GI50 (SF-268): > 100 µM (inactive)
GI50 (SF-295): > 100 µM (inactive)
GI50 (SF-539): > 100 µM (inactive)
GI50 (SK-MEL-28): > 100 µM (inactive)
GI50 (SK-MEL-2): > 100 µM (inactive)
GI50 (SK-MEL-5): > 100 µM (inactive)
GI50 (SK-OV-3): > 100 µM (inactive)
GI50 (SNB-19): > 100 µM (inactive)
GI50 (SNB-75): > 100 µM (inactive)
GI50 (SNB-78): > 100 µM (inactive)
GI50 (SR): > 100 µM (inactive)
GI50 (SW-620): > 100 µM (inactive)
GI50 (TK-10): > 100 µM (inactive)
GI50 (U-251): > 100 µM (inactive)
GI50 (UACC-257): > 100 µM (inactive)
GI50 (UACC-62): > 100 µM (inactive)
GI50 (UO-31): > 100 µM (inactive)
GI50 (XF498): > 100 µM (inactive)
